Source: patent publication US20040213743A1, “Sensorially active substances embedded in plastic” (priority 1996, published 2004)
Where two headings read alike, the source gives them in different places.

Assays:
[1] = solubility in plastic and solvents; type: physicochemical; conditions: molten flexible PVC
[2] = cited from earlier work
[3] = cited from earlier work; remark: listed apart in the source
rats = rats gnawing on denatonium benzoate-treated flexible PVC; type: in vivo
[4] = approximately 0.2 grams of denatonium benzoate in 100 grams of clear flexible PVC

solubility in polyvinyl chloride (PVC) [1]: readily dissolves | solubility in polyvinyl chloride (PVC) ([1]; listed as Bitrex™): soluble in PVC | effect on rats which ingest the treated PVC (rats; [4]): pronounced soporific effect
Compound: CC[N+](CC)(CC(=O)Nc1c(C)cccc1C)Cc1ccccc1 [denatonium benzoate]
solubility in organic solvents ([2]; benzene and chloroform): readily soluble | solubility in ether ([2]; ether): nearly insoluble | skin irritation ([3]; at concentrations of 0.05%): does not irritate the skin | skin irritation ([3]; even in fairly high concentrations): non-irritating to the skin | deterrence of gnawing on the PVC (rats; [4]): does not deter rats from gnawing and eating the PVC | deterrence of gnawing on the PVC (rats; approximately 2.5 grams of denatonium benzoate in 100 grams of clear flexible PVC, also when sample thoroughly washed): quite effective in discouraging rats from gnawing on the plastic
